These compounds were tested against Cell division control protein 42 homolog (Homo sapiens, UniProt P60953) (assay: inhibition of fluorescent GTP binding to wildtype Cdc42 – biochemical, pyrazoline analogs, multiplex bead flow cytometry, Ki, SAR follow-up (AID 2019)). Settings: not given.
Chain of Cell division control protein 42 homolog (P60953 whole entry): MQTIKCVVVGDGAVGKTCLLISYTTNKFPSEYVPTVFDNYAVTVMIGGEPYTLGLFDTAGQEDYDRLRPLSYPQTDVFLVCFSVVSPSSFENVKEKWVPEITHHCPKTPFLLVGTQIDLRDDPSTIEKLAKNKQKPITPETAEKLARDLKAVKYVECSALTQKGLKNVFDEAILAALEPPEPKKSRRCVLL

SMILES | EC50
COc1ccc(C2CC(c3cccc(Br)c3)=NN2c2ccc(S(N)(=O)=O)cc2)cc1 (centres undefined) [UNM-0000306113] | 2070 nM
COc1ccc(C2CC(c3cccc(Cl)c3)=NN2c2ccc(S(N)(=O)=O)cc2)cc1 (centres undefined) [UNM-0000306134] | 1300 nM
COc1ccc(C2CC(c3ccc(Br)cc3)=NN2c2ccc(S(N)(=O)=O)cc2)cc1 (centres undefined) [UNM-0000306138] | 2990 nM
COc1ccc(C2CC(c3cccc(C)c3)=NN2c2ccc(S(N)(=O)=O)cc2)cc1 (centres undefined) [UNM-0000306153] | 3770 nM
NS(=O)(=O)c1ccc(N2N=C(c3ccccc3)CC2c2ccc(Br)cc2)cc1 (centres undefined) [UNM-0000306160] | 1070 nM

The next lines start with the values.

EC50 | SMILES
2790 nM | COc1ccc(C2CC(c3ccccc3F)=NN2c2ccc(S(N)(=O)=O)cc2)cc1 (centres undefined) [UNM-0000306110]
3360 nM | COc1ccc(C2CC(c3ccccc3Br)=NN2c2ccc(S(N)(=O)=O)cc2)cc1 (centres undefined) [UNM-0000306112]

Same assay, conditions: inactive by the depositor's call

EC50 | SMILES
30000 nM | COc1ccc(C2CC(c3ccccc3)=NN2c2ccc(C(=O)O)cc2)cc1 (centres undefined) [UNM-0000306085]
4130 nM | COc1ccc(C2CC(c3ccccc3C)=NN2c2ccc(S(N)(=O)=O)cc2)cc1 (centres undefined) [UNM-0000306152]
